Where two headings read alike, the source gives them in different places.

Assay [1] deals with β-Glc (from almonds). As to conditions: cited from earlier work.
Assay [2] concerns β-Glc (from almonds). Description: β-Glc microplate assay (hydrolysis of p-nitrophenyl-β-D-glucopyranoside). Format: biochemical. To be noted: for IC50: microplate assay, β-PNPG substrate, pH 7, 37 °C, read-out: IC50 (β-Glc inhibition). The protocol:
The final volume in well was 270 μL. The enzymatic reaction was initiated by addition of β-PNPG (1.63 mM end concentration in well). […] For IC50 determination, ten serial dilutions of the compounds were prepared in DMSO, following equally spaced points in […] logarithm scale, starting at 16.2 mM and finishing at 1.7 μM. IC50 was calculated using Prism V5.01 (GraphPad Software Inc., La Jolla, CA, USA) requesting the software a non-linear regression curve fit for a log[Inhibitor] vs. normalized answer model with variable slope.

Assay [3] has as its target β-Glc. As to conditions: cited from earlier work.
The subject of assay [4] is β-Glc. Briefly: Jump dilution assay. Format: biochemical, almonds. The protocol: After 30 minutes of incubation, the mixture was diluted 100-fold and mixed with the substrate and α-CD to start the reaction. The progress curve of this sample was measured and compared to a sample of enzyme incubated and diluted in the absence of inhibitor. Each incubation and dilution were prepared and measured in triplicate. The percentage of activity recovery was obtained using Prism V5.01 (GraphPad Software Inc.).

In assay [5] the target is xanthine oxidase (XO) (Bos taurus, UniProt P80457). Description: XO microplate assay (uric acid formation). As to conditions: tested at 3 μM. The class given is biochemical, bovine. The protocol: Following the method previously reported by Chu,[45] the formation of uric acid was continuously measured in 96-well microplate. Each well was filled in triplicates with: of 10 μL test compound in DMSO (0.11 μM end concentration in well) and XO (bovine) in 0.2 M buffer phosphate, pH 7.5 (2.81 μU mL^−1, end concentration in well). […] The final volume in well was 270 μL. The enzymatic reaction was initiated by addition of the xanthine substrate (0.04 mM, end concentration in well). The plate was shaken for 2 s and the increase in absorbance at 295 nm was monitored at 30 °C for 20 min.

The target in assay [6] is T1, β-galactosidase (β-Gal) (Kluyveromyces lactis, UniProt P00723). Description: β-Gal microplate assay. As to conditions: up to 3.500 mM. Format: biochemical. On the procedure:
Similar to the method applied in β-Glc assay, the hydrolysis of o-nitrophenyl-β-O-D-galactopyranoside (β-ONPG) was continuously measured in 96-well microplate. Wells were filled in triplicate with β-Gal (Kluyveromyces lactis) in 50 mM buffer phosphate, pH 7 (7.20 μU mL^−1 final concentration in well) and 10 μL of test compound in dimethylsulfoxide (DMSO) solution (100 μM or 500 μM end concentration in well). The final volume in well was 270 μL. The enzymatic reaction was initiated by addition of β-ONPG (3.23 mM end concentration in well). The plate was shaken for 2 s and the increase in absorbance at 405 nm was monitored at 37 °C for 10 min. For IC50 determination, eighteen serial dilutions of the compounds were prepared in DMSO, following equally spaced points in neperian logarithm scale, starting at 94.50 mM and finishing at 1.44 μM. IC50 was calculated using Prism V5.01 (GraphPad Software Inc., La Jolla, CA, USA) requesting the software a non-linear regression curve fit for a log[Inhibitor] vs. normalized answer model with variable slope.

Assay [7] deals with acetyl cholinesterase (AChE) (Electrophorus electricus, UniProt O42275). Format: biochemical, electric eel. As to conditions: tested at 1.5 μM. The protocol:
AChE activity measurement was carried on based on Ellman's method.[46] […] The plate was shaken for 2 s and the increase in absorbance at 405 nm was monitored at 37 °C for 15 min.

Assay [8] deals with β-Glc. Description: Kinetic experiments (Lineweaver–Burk, Ki). The class given is biochemical, almonds. The protocol: Microplate assay was carried on varying substrate concentration between 0.022 and 7.2 mM; as well as the inhibitor concentration was varied between 0.239 and 0.0061 mM. Initial velocities vs. [S] curves were obtained with Michaelis–Menten equation adjustment. After that, Lineweaver–Burk linearization plot and the secondary linearization of Slopes vs. [I] reveled type of inhibition and Ki value respectively. All the data acquired was treated through Prism V5.01 (GraphPad Software Inc.).

Assay [9] has as its target T1, β-galactosidase (β-Gal). The arrangement: method as in earlier work. As to conditions: ref 1 (Kato et al., J. Med. Chem., 2005, 48, 2036-2044); read-out: IC50 (β-Gal), reference inhibitor; cited from earlier work.
[10] abbreviates: binds the active site of β-Glc from almonds, read-out: Ki (β-Glc from almonds).

T1 sequence (P00723 whole entry): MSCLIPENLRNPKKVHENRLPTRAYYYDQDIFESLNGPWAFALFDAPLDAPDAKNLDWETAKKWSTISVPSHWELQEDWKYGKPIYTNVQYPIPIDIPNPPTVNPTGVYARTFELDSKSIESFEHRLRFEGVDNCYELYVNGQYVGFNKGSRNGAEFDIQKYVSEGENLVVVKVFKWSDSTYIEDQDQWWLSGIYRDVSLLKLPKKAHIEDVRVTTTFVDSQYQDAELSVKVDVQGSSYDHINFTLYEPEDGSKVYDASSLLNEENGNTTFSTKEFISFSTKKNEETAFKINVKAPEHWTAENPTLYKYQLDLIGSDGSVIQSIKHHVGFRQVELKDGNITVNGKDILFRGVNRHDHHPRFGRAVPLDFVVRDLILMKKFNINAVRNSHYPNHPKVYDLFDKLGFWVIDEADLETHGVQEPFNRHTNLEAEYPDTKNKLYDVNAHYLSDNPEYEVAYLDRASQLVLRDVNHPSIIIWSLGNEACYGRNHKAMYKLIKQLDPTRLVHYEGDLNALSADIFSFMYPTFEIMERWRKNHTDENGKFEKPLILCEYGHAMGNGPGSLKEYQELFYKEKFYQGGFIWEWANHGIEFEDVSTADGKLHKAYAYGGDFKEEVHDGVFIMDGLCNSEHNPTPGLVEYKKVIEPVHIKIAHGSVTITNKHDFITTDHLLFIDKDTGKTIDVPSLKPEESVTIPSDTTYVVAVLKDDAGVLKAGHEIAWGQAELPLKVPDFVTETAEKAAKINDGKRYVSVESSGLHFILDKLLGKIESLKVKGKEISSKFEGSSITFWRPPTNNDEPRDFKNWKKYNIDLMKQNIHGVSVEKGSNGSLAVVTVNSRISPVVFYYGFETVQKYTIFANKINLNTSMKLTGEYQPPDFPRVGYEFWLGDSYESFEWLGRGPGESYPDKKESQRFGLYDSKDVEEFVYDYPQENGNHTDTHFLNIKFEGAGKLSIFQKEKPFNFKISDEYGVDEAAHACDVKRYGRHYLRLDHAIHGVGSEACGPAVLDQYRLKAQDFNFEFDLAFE
acetyl cholinesterase (AChE), sequence (O42275 24-633): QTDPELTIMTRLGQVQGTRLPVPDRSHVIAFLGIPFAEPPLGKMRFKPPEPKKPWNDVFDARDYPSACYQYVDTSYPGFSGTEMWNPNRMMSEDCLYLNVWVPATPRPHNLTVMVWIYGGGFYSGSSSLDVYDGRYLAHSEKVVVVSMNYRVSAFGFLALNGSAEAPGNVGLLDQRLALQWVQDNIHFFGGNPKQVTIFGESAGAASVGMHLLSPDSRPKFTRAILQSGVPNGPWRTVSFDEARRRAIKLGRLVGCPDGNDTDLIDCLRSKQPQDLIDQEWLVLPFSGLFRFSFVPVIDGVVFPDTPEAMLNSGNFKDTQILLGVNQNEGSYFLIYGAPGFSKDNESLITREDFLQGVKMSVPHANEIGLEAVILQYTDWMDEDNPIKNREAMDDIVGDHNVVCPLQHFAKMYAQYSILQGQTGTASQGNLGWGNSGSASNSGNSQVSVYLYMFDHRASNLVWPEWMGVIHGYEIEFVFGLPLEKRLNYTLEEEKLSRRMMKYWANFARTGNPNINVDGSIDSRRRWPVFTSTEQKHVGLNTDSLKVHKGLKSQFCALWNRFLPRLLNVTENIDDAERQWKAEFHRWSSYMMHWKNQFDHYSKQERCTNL
xanthine oxidase (XO), sequence (P80457 whole entry): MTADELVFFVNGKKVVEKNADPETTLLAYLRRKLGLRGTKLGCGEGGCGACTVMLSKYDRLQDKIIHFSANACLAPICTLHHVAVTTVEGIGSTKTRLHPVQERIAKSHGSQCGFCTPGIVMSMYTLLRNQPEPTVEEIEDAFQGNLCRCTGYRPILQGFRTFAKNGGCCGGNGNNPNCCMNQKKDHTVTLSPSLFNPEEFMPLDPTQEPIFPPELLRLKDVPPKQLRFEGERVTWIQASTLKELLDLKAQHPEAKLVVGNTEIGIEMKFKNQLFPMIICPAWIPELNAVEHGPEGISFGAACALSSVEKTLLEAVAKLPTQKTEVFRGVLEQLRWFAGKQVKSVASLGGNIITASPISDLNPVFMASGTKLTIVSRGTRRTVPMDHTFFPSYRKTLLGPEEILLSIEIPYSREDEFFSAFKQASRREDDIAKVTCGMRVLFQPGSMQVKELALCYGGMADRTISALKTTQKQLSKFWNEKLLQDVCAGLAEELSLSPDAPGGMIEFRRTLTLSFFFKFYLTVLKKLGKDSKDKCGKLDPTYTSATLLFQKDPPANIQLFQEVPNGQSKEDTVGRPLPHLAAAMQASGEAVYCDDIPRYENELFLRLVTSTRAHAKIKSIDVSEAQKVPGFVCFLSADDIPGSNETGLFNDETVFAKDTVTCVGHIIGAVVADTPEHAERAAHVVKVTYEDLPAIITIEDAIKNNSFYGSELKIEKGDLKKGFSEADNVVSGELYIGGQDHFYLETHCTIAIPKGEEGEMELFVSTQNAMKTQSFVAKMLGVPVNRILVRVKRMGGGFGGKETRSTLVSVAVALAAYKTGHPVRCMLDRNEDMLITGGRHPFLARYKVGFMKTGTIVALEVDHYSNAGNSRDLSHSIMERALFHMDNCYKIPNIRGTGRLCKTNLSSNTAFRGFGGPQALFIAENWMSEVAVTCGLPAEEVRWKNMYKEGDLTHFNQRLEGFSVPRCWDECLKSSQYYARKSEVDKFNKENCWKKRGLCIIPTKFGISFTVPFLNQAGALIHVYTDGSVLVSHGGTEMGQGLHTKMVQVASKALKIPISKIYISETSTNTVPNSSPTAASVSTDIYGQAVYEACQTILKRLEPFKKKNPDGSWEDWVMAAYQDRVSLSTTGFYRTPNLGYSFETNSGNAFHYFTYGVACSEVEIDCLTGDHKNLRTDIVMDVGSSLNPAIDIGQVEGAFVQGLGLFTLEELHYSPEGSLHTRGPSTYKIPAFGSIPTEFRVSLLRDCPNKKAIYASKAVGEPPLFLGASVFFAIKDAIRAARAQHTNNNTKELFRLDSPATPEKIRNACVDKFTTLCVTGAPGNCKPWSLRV

Usually IC50 stands for the concentration at which inhibition is half-maximal. For orientation: Ki means a dissociation constant, usually derived from enzyme kinetics or from competition with a known ligand. For `OC[C@H]1NC[C@H](O)[C@@H](O)[C@@H]1O` [1-DNJ, 1-deoxynojirimycin, reference compound], the IC50 in assay [1] (read-out: IC50 (β-Glc inhibition), reported value for reference inhibitor) is 81 µM; in assay [2] it was 65.2 ± 1.04 µM. For the same compound, the Ki in [3] (measured in similar conditions, read-out: Ki (β-Glc), reference compound) was 47 µM.
Take `O=S(=O)(NCCc1c[nH]cn1)c1ccccc1` [I-a, N ^α-benzenesulfonyl histamine]: in assay [2], the half-maximal inhibitory concentration (IC50) worked out at 197 µM.
With `Cc1ccc(S(=O)(=O)NCCc2c[nH]cn2)cc1` [I-b, N ^α-p-toluenesulfonyl histamine], the IC50 in assay [2] amounted to 250 ± 1.03 µM.
In general, inhibition refers to the drop in the measured response relative to a control, in per cent. High values mean strong suppression, low ones little suppression. Turning to `O=S(=O)(NCCc1c[nH]cn1)c1ccc(F)cc1` [I-c, N ^α-4-fluorobenzenesulfonyl histamine], the “Enzyme activity recovery (jump dilution)” value in assay [4] (incubated at 10-fold IC50, 30 min, diluted 100-fold) amounted to 91%. Moreover, the “Enzyme–inhibitor interaction (reversibility)” value in assay [4] (jump dilution) was “reversible”. The IC50 in assay [2] was found to be 65.1 ± 1.04 µM. In [2] (tested at 65 μM), the “% inhibition of β-Glc at 65 μM” value was 49.94%. In assay [5], this compound gave an inhibition at 3 µM of 1.31%. In addition, the “Inhibition of β-Gal” value in assay [6] was “no inhibition”. Moreover, the “Inhibition of AChE” value in assay [7] is reported as “no inhibition”. The “Type of inhibition (Lineweaver–Burk plot)” value in [8] (different concentrations of p-NPG and inhibitor) is on record as “competitive”. For the same compound, the Ki in assay [8] (kinetic assays, p-NPG substrate) came out at 8.11 µM.
For `O=S(=O)(NCCc1c[nH]cn1)c1ccc(C(F)(F)F)cc1` [I-d, N ^α-4-(trifluoromethyl)benzenesulfonyl histamine], the IC50 in [2] was found to be 79.5 ± 1.05 µM.
For `Cc1ccc(F)c(S(=O)(=O)NCCc2c[nH]cn2)c1` [I-e, N ^α-2-fluor-5-methylbenzenesulfonyl histamine], the “% of inhibition of β-Glc at 40 μM” value in [2] (fixed compound concentration 40 μM) is not above 25%. Also, the IC50 in assay [2] was found to be 421.6 ± 0.94 µM.
With `O=S(=O)(NCCc1c[nH]cn1)c1ccc(F)cc1Cl` [I-f, N ^α-2-Chloro-4-fluorobenzenesulfonyl histamine], the 50% inhibitory concentration (IC50) in [2] is 244.2 ± 1.09 µM.
In the case of `O=S(=O)(NCCc1c[nH]cn1)c1cc(F)c(F)c(F)c1` [I-g, N ^α-3,4,5-trifluorobenzenesulfonyl histamine], the IC50 in [2] came out at 71.4 ± 1.02 µM.
As for `O=S(=O)(NCCc1c[nH]cn1)c1ccc(F)cc1C(F)(F)F` [I-h, N ^α-2-(trifluoromethyl)-4-fluorobenzenesulfonyl histamine], the half-inhibitory concentration (IC50) in assay [2] was 72.7 ± 1.05 µM.
On the same count and under the same terms, the figure for `O=S(=O)(NCCc1c[nH]cn1)c1c(F)c(F)c(F)c(F)c1F` [I-i, N ^α-pentafluorobenzenesulfonyl histamine] is 102 ± 1.05 µM; for `COc1ccc(S(=O)(=O)NCCc2c[nH]cn2)cc1F` [I-j, N ^α-3-fluoro-4-methoxybenzenesulfonyl histamine] it is 95.5 ± 1.02 µM.
As for `O=S(=O)(NCCc1cn(S(=O)(=O)c2ccccc2)cn1)c1ccccc1` [II-a, N ^α,N^τ-di-benzenesulfonyl histamine], the concentration for half-maximal inhibition (IC50) in assay [1] (read-out: IC50 (β-Glc inhibition), reported value) was 250 µM.
Consider `OC[C@H]1NC[C@H](O)[C@@H](O)[C@H]1O` [galacto-DNJ], for which, in [9], the IC50 is 90 µM.
Regarding `NCCc1c[nH]cn1` [histamine], in [2], the 50% inhibitory concentration (IC50) was more than 1000 µM. For the same compound, the Ki in assay [3] (setting [10]) is 2100 µM.
For the compound `c1c[nH]cn1` [imidazole], the Ki in [3] (setting [10]) was 530 µM.
